Test results as given in patent publication US4526776A, “Cationic cyanato and thiocyanato complexes useful as radiodiagnostic agents” (E. I. du Pont de Nemours & Company, priority 1983, dated 1985).

Assays:
[1] = tested on: hepatobiliary transit (liver, gall bladder and gastro-intestinal tract); test: Visualization of hepatobiliary transit, sequential scintillation camera images after intravenous injection; format: in vivo, rabbit (male New Zealand Albino); settings: rabbit, >1 mCi (Disofenin: at least 1 mCi)
Procedure: A lyophylized vial of HEPATOLITE™ (New England Nuclear Corporation's brand of Technetium Tc99m Disofenin) is labelled with ^99m Tc-pertechnetate in accordance with manufacturer's directions. At least 1 mCi of the labelled preparation is injected intravenously into a 2.5 Kg male New Zealand Albino rabbit. The rabbit is positioned under a Searle Pho-Gamma scintallation camera in such a way that the liver and gastro-intestinal tract are within the field of view.
Greater than 1 mCi of the ^99m Tc-Thiocyanato-DMPE complex from either Example 1 or 2 is injected into a rabbit as in Example 3.

hepatobiliary transit = settings: commercially available agent, species not stated; cited from earlier work

| Molecule | sequential images of hepatobiliary transit, passage and image quality [1] | time to sequential images of hepatobiliary transit (liver, gall bladder and gastro-intestinal tract) [1] | time to obtain an image of the hepatobiliary transit (hepatobiliary transit) [min] |
| --- | --- | --- | --- |
| CC(C)c1cccc(C(C)C)c1NC(=O)CN(CC(=O)O)CC(=O)O.[99Tc] [Disofenin, Technetium Tc99m Disofenin, reference compound] | initial liver uptake with gradual visualization of the gall bladder and gastro-intestinal tract, analogous to the diagnostically efficacious results obtained in clinical studies of normal healthy humans | about 30 minutes | ≤ 30 |
| ^99m Tc-Thiocyanato - DMPE Complex [Example 2] | rapid passage and comparable image quality of the liver, gall bladder and gastro-intestinal tract | about 10 minutes | – |
